Activity calls are given as the source filed them. The calls are words filed in the database; no cut-off is given here.
Assays:
HepG2 = test: Antiproliferative activity against human HepG2 cells assessed as inhibition of cell growth incubated for 72 hrs by SRB assay; type: functional, cell-based; conditions: HepG2, 72 h
SH-SY5Y = test: Antiproliferative activity against human SH-SY5Y cells assessed as inhibition of cell growth incubated for 72 hrs by SRB assay; type: functional, cell-based
H69AR [1] = test: Induction of apoptosis in human NCI-H69AR cells assessed as inhibition of Bcl-2 protein expression at 0.1 to 100 nM incubated for 24 hrs by Western blot analysis; type: functional, cell-based; conditions: dose 0.1-100 nM
SW-620 = test: Antiproliferative activity against human SW-620 cells assessed as inhibition of cell growth incubated for 72 hrs by SRB assay; type: functional, cell-based; conditions: SW-620, 72 h
NCI-H446 [2] = test: Induction of apoptosis in human NCI-H446 cells assessed as inhibition of Mcl-1 protein expression incubated for 24 hrs by Western blot analysis; type: functional, cell-based; conditions: dose 0.1-100 nM
NCI-H69 [3] = test: Induction of apoptosis in human NCI-H69 cells assessed as inhibition of XIAP protein expression at 0.1 to 100 nM incubated for 24 hrs by Western blot analysis; type: functional, cell-based; conditions: dose 0.1-100 nM
NCI-H69 [4] = test: Induction of apoptosis in human NCI-H69 cells assessed as reduction in Mcl-1 mRNA expression at 0.1 to 100 nM incubated for 24 hrs by RT-PCR analysis; type: functional, cell-based; conditions: dose 0.1-100 nM
H69AR [5] = test: Induction of apoptosis in human NCI-H69AR cells assessed as early apoptotic cells at 1 nM incubated for 24 hrs by AnnexinV-FITC/PI staining based flow cytometry analysis (reference value: 0.35 %); type: functional
NCI-H446 [6] = test: Induction of apoptosis in human NCI-H446 cells assessed as late apoptotic cells at 10 nM incubated for 24 hrs by AnnexinV-FITC/PI staining based flow cytometry analysis (reference value: 0.37 %); type: functional
U-87 MG = test: Antiproliferative activity against human U87 cells assessed as inhibition of cell growth incubated for 72 hrs by SRB assay; type: functional, cell-based, U-87MG ATCC
H69AR [7] = test: Induction of apoptosis in human NCI-H69AR cells assessed as inhibition of XIAP protein expression at 0.1 to 100 nM incubated for 24 hrs by Western blot analysis; type: functional, cell-based; conditions: dose 0.1-100 nM
NCI-H446 [8] = test: Antiproliferative activity against Irinotecan-resistant human NCI-H446 cells assessed as inhibition of cell growth incubated for 72 hrs by SRB assay; type: functional, cell-based; conditions: NCI-H446, 72 h
NCI-H446 [9] = test: Antitumor activity against human NCI-H446 cells xenografted in BALB/c nude mouse assessed as tumor growth inhibition at 1.5 mg/kg, IG administered once a week for 28 days by electronic caliper method relative to control; type: functional; conditions: NCI-H446, po, 672 h, time 28 day, read-out: TGI
NCI-H446 [10] = test: Induction of apoptosis in human NCI-H446 cells assessed as reduction in survivin mRNA level at 0.1 to 100 nM incubated for 24 hrs by RT-PCR analysis; type: functional, cell-based; conditions: dose 0.1-100 nM
NCI-H69 [11] = test: Antiproliferative activity against human NCI-H69 cells assessed as inhibition of cell growth incubated for 72 hrs by SRB assay; type: functional, cell-based; conditions: NCI-H69, 72 h
MCF7 = test: Antiproliferative activity against human MCF7 cells assessed as inhibition of cell growth incubated for 72 hrs by SRB assay; type: functional, cell-based; conditions: MCF7, 72 h
NCI-H446 [12] = test: Induction of apoptosis in human NCI-H446 cells assessed as late apoptotic cells at 0.1 nM incubated for 24 hrs by AnnexinV-FITC/PI staining based flow cytometry analysis (reference value: 0.37 %); type: functional
Mus musculus = test: Downregulation of survivin protein expression in tumor of BALB/c mouse xenografted with human NCI-H446 cells at 0.75 mg/kg, IG administered intragastrically once a week for 28 days by western blot analysis; type: functional, organism-based; conditions: time 28.0 day
NCI-H446 [13] = test: Antitumor activity against human NCI-H446 cells xenografted in BALB/c nude mouse assessed as reduction in large tumor growth at 3 mg/kg, IG administered for 31 days by electronic caliper method; type: functional, organism-based; conditions: time 31.0 day
H69AR [14] = test: Antiproliferative activity against human NCI-H69AR cells assessed as inhibition of cell growth incubated for 72 hrs by SRB assay; type: functional, cell-based
H69AR [15] = test: Induction of apoptosis in human NCI-H69AR cells assessed as early apoptotic cells at 100 nM incubated for 24 hrs by AnnexinV-FITC/PI staining based flow cytometry analysis (reference value: 0.35 %); type: functional
H69AR [16] = test: Induction of apoptosis in human NCI-H69AR cells assessed as reduction in XIAP mRNA expression at 0.1 to 100 nM incubated for 24 hrs by RT-PCR analysis; type: functional, cell-based; conditions: dose 0.1-100 nM
NCI-H69 [17] = test: Induction of apoptosis in human NCI-H69 cells assessed as inhibition of Mcl-1 protein expression at 0.1 to 100 nM incubated for 24 hrs by Western blot analysis; type: functional, cell-based; conditions: dose 0.1-100 nM
[18] = Toxicity in BALB/c nude mouse xenografted with Irinotecan-resistant human NCI-H446 cells assessed as reduction in body weight at 3 mg/kg, IG administered once a week and measured 3 times a week for 35 days; type: organism-based; conditions: in vivo, po, 840 h, time 35 day
NCI-H446 [19] = test: Antitumor activity against Irinotecan-resistant human NCI-H446 cells xenografted in BALB/c nude mouse assessed as tumor weight at 3 mg/kg, IG administered once a week and measured 3 times a week for 35 days; type: functional; conditions: time 35 day
NCI-H69 [20] = test: Induction of apoptosis in human NCI-H69 cells assessed as increase in cleaved-PARP protein expression at 0.1 to 100 nM measured after 24 hrs by Western blot analysis; type: functional, cell-based; conditions: dose 0.1-100 nM
NCI-H446 [21] = test: Induction of apoptosis in human NCI-H446 cells assessed as increase in cleaved-caspase 3 protein expression at 0.1 to 100 nM measured after 24 to 48 hrs by Western blot analysis; type: functional, cell-based; conditions: dose 0.1-100 nM, time 24-48 hrs
H69AR [22] = test: Induction of apoptosis in human NCI-H69AR cells assessed as inhibition of survivin protein expression at 0.1 to 100 nM incubated for 24 hrs by Western blot analysis; type: functional, cell-based; conditions: dose 0.1-100 nM
H69AR [23] = test: Induction of apoptosis in human NCI-H69AR cells assessed as increase in cleaved-caspase 9 protein expression at 0.1 to 100 nM measured after 24 hrs by Western blot analysis; type: functional, cell-based; conditions: dose 0.1-100 nM
2008 = test: Antiproliferative activity against human 2008 cells assessed as inhibition of cell growth incubated for 72 hrs by SRB assay; type: functional, cell-based; conditions: Homo sapiens, 2008, 72 h
H69AR [24] = test: Induction of apoptosis in human NCI-H69AR cells assessed as late apoptotic cells at 10 nM incubated for 24 hrs by AnnexinV-FITC/PI staining based flow cytometry analysis (reference value: 2.99 %); type: functional
NCI-H446 [25] = test: Induction of apoptosis in human NCI-H446 cells assessed as early apoptotic cells at 10 nM incubated for 24 hrs by AnnexinV-FITC/PI staining based flow cytometry analysis (reference value: 3.1 %); type: functional
Bel-7402 = test: Antiproliferative activity against human Bel-7402 cells assessed as inhibition of cell growth incubated for 72 hrs by SRB assay; type: functional, cell-based; conditions: Bel-7402, 72 h
NCI-H446 [26] = test: Antitumor activity against Irinotecan-resistant human NCI-H446 cells xenografted in BALB/c nude mouse assessed as tumor weight at 3 mg/kg, IG administered once a week and measured 3 times a week for 35 days relative to control; type: functional; conditions: NCI-H446, po, 840 h, time 35 day, read-out: TGI

CC[C@@]1(O)C(=O)OCc2c1cc1n(c2=O)Cc2c-1nc1cc3c(cc1c2-c1ccoc1)OCO3
IC50 (HepG2): 1.42 nM
IC50 (SH-SY5Y): 7.91 nM
inhibition (H69AR [1]): Active
IC50 (SW-620): 0.11 nM
inhibition (NCI-H446 [2]): Active
inhibition (NCI-H69 [3]): Active
Activity (NCI-H69 [4]): Active
Activity (H69AR [5]): 0.62%
Activity (NCI-H446 [6]): 6.25%
IC50 (U-87 MG): 19.1 nM
inhibition (H69AR [7]): Active
IC50 (NCI-H446 [8]): 0.5 nM
inhibition in vivo at 1.5 mg/kg (NCI-H446 [9]): 73.7%
Activity (NCI-H446 [10]): Active
IC50 (NCI-H69 [11]): 14.6 nM
IC50 (MCF7): 9.49 nM
Activity (NCI-H446 [12]): 3.73%
Activity (Mus musculus): Active
Activity (NCI-H446 [13]): Active
IC50 (H69AR [14]): 5.57 nM
Activity (H69AR [15]): 1.73%
Activity (H69AR [16]): Active
inhibition (NCI-H69 [17]): Active
Activity [18]: Non-Toxic
Activity (NCI-H446 [19]): 0.15 g
Activity (NCI-H69 [20]): Active
Activity (NCI-H446 [21]): Active
inhibition (H69AR [22]): Active
Activity (H69AR [23]): Active
IC50 2008: 10.2 nM
Activity (H69AR [24]): 12.48%
Activity (NCI-H446 [25]): 15.81%
IC50 (Bel-7402): 3.8 nM
inhibition in vivo at 3 mg/kg (NCI-H446 [26]): 93.4%
